Reference: patent US20230123334A1, “AMINO LIPID COMPOUND, PREPARATION METHOD THEREFOR, AND APPLICATION THEREOF” (SHENZHEN SHENXIN BIOTECHNOLOGY CO., LTD., priority 2020, published 2023)

Tests used:
HEK293 cells [1] = experiment: Preliminary screening as mRNA vectors, EGFP mRNA transfection of HEK293 cells; type: cell-based; details: HEK293 cells, 96-well plates, EGFP mRNA 50 ng per well; percentage of GFP fluorescent cells relative to total number of cells (Hoechst)
Procedure, shortened: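 HEK293 cells in DMEM plus 10% FBS transfected in 96-well format with 50 ng EGFP mRNA per well; Lipofectamine2000 served as positive control. Read-out is the percentage of GFP-fluorescent cells among total cells, counted by Hoechst nuclear stain.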

HEK293 cells [2] = experiment: Preliminary screening as DNA vectors, GFP transfection of HEK293 cells; type: cell-based; details: HEK293 cells; lipid/DOPE liposome with 75 ng plasmid DNA (psin-EGFP-IRES-Puro); number of cells expressing GFP divided by total number of nuclei (Hoechst)
Procedure, shortened: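 HEK293 cells in DMEM/10% FBS transfected with 75 ng EGFP plasmid per well complexed with amino lipid/DOPE liposomes in pH 5.6 sodium acetate. Hoechst nuclear stain added 20-24 h post-transfection, then cells cultured another 20-24 h. Confocal imaging gives GFP-positive cells as % of total nuclei.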

Structure (SMILES)	Absolute mRNA transfection efficiency in HEK293 cells (HEK293 cells [1])	Absolute DNA transfection efficiency in HEK293 cells (HEK293 cells [2])
CCCCCCCCCNc1nc(NCCCCCCCCC)nc(NCCCN(C)C)n1 [Compound N9N9D6]	0.4%	0.2%
CCCCCCCCCCCCCCCCCCNc1nc(NCCCCCCC)nc(NCCN2CCCCC2)n1 [Compound N7N18D4]	0.1%	0.2%
CCCCCCCCNc1nc(NCCCCCCCC)nc(NCC2CCN(C)CC2)n1 [Compound N8N8D10]	0.0%	0.0%
CCCCCCCCCCCCCCCCNc1nc(NCCCCCCCCCCC)nc(NCCCN2CCOCC2)n1 [Compound N11N16D8]	0.4%	0.0%
CCCCCCCCCCCCCCCCNc1nc(NCCCCCCCCCCCC)nc(NCC2CCN(C)CC2)n1 [Compound N12N16D10]	0.6%	0.0%
CCCCCCCCNc1nc(NCCCCCCCC)nc(NCCCN2CCN(C)CC2)n1 [Compound N8N8D9]	0.0%	0.7%
CCCCCCCCCCCSc1nc(NCCN2CCCCC2)nc(SCCCCCCCCC)n1 [Compound S9S11D4]	4.1%	15.2%
CCCCCCNc1nc(NCCCCCC)nc(NCCN2CCCC2)n1 [Compound N6N6D3]	0.3%	0.2%
CCCCCCCCCCCCCCCCSc1nc(NCCN2CCOCC2)nc(SCCCCCCCCCCC)n1 [Compound S11S16D2]	0.1%	0.0%
CCCCCCCCCCCCCCCCNc1nc(NCCCCCCC)nc(NCCN(CC)CC)n1 [Compound N7N16D7]	0.4%	0.0%
CCCCCCCCCCCCCCCCSc1nc(NCCCN(C)C)nc(SCCCCCCCC)n1 [Compound S8S16D6]	61.0%	33.0%
CCCCCCCCCCCCCNc1nc(NCCCCCCCCCCCC)nc(NCCCN2CCOCC2)n1 [Compound N12N13D8]	0.0%	0.3%
CCCCCCCCCCCCCCCCNc1nc(NCCCCCCCCCCCCCCCC)nc(NCCCN2CCOCC2)n1 [Compound N16N16D8]	1.6%	0.5%
CCCCCCCCCCCCCCCCCCNc1nc(NCCCCCCCCCCC)nc(NCCN(C)C)n1 [Compound N11N18D1]	7.2%	3.4%
CCCCCCCCCCSc1nc(NCC2CCN(C)CC2)nc(SCCCCCCCCC)n1 [Compound S9S10D10]	47.2%	18.7%
CCCCCCCCCCCNc1nc(NCCCCCCC)nc(NCCN(C)C)n1 [Compound N7N11D1]	0.0%	1.3%
CCCCCCCCCCCCCCCCCCSc1nc(NCCN(C)C)nc(SCCCCCCCCCCCCCCC)n1 [Compound S15S18D1]	0.0%	0.0%
CCCCCCCCCCCCCCCCSc1nc(NCCN(CC)CC)nc(SCCCCCCCCCCCCCCCC)n1 [Compound S16S16D7]	0.0%	0.5%
CCCCCCCCCCCCCCCCCCSc1nc(NCCN(CC)CC)nc(SCCCCCCCCC)n1 [Compound S9S18D7]	1.9%	11.8%
CCCCCCCCCCSc1nc(NCCN(C)C)nc(SCCCCCCCCCC)n1 [Compound S10S10D1]	0.7%	7.8%
CCCCCCCCCCCCCCCCCCNc1nc(NCCCCCCCC)nc(NCCCN(C)C)n1 [Compound N8N18D6]	4.1%	2.2%
CCCCCCCCCCCCCNc1nc(NCCCCCCCCC)nc(NCCN(C)C)n1 [Compound N9N13D1]	2.2%	0.4%
CCCCCCCCCCCCCCCSc1nc(NCCN(C)C)nc(SCCCCCCCC)n1 [Compound S8S15D1]	0.4%	8.1%
CCCCCCCCCCCCCCCCCCSc1nc(NCCN(CC)CC)nc(SCCCCCCCCCCC)n1 [Compound S11S18D7]	1.1%	3.6%

Structure (SMILES)	Absolute mRNA transfection efficiency in HEK293 cells (HEK293 cells [1])	Absolute DNA transfection efficiency in HEK293 cells (HEK293 cells [2])
CCCCCCCCCCSc1nc(NCCCN2CCN(C)CC2)nc(SCCCCCCCCCC)n1 [Compound S10S10D9]	51.3%	13.4%
CCCCCCCCCCCNc1nc(NCCCCCCC)nc(NCCN2CCCC2)n1 [Compound N7N11D3]	1.3%	1.0%
CCCCCCCCCCCCCCCCSc1nc(NCCCN(C)C)nc(SCCCCCCCCCCC)n1 [Compound S11S16D6]	9.3%	2.7%
CCCCCCCCCCCCCCCCCCNc1nc(NCCCCCCCCC)nc(NCCN2CCCC2)n1 [Compound N9N18D3]	4.7%	2.0%
CCCCCCCCCCCCSc1nc(NCCN2CCCCC2)nc(SCCCCCCCCCCC)n1 [Compound S11S12D4]	0.4%	5.6%
CCCCCCCCCCCCCCCCSc1nc(NCCN2CCN(C)CC2)nc(SCCCCCCCCCCC)n1 [Compound S11S16D5]	5.1%	4.9%
CCCCCCCCCCCCN(CCCCCCCCCCCC)c1nc(NCCCCCC)nc(NCC2CCN(C)CC2)n1 [N6^2N12D10]	0.0%	0.4%
CCCCCCCCCCCCCCCCCCNc1nc(NCCCCCCCC)nc(NCCN(C)C)n1 [Compound N8N18D1]	6.4%	1.8%
CCCCCCCCNc1nc(NCCCCCC)nc(NCCN(CC)CC)n1 [Compound N6N8D7]	0.1%	0.0%
CCCCCCCCCCCCCCCCCCNc1nc(NCCCCCCCCCCCCCCCCCC)nc(NCCN(CC)CC)n1 [Compound N18N18D7]	0.0%	0.3%
CCCCCCCCCCCCCCSc1nc(NCCN(CC)CC)nc(SCCCCCCCCCCC)n1 [Compound S11S14D7]	0.7%	2.9%
CCCCCCCCCCCCN(CCCCCCCCCCCC)c1nc(NCCCCCCCC)nc(NCCCN2CCN(C)CC2)n1 [N8^2N12D9]	0.4%	0.2%
CCCCCCCCCCCCCCCCCCSc1nc(NCCN2CCN(C)CC2)nc(SCCCCCCCCCCCCCC)n1 [Compound S14S18D5]	1.0%	0.2%
CCCCCCCCCCCNc1nc(NCCCCCCC)nc(NCCN2CCOCC2)n1 [Compound N7N11D2]	0.0%	0.1%
CCCCCCCCCCCCNc1nc(NCCCCCCCCCCC)nc(NCC2CCN(C)CC2)n1 [Compound N11N12D10]	0.4%	1.8%
CCCCCCCCCCCNc1nc(NCCCCCCCCC)nc(NCCN2CCCC2)n1 [Compound N9N11D3]	1.8%	0.0%
CCCCCCCCCNc1nc(NCCCCCCC)nc(NCCCN2CCOCC2)n1 [Compound N7N9D8]	0.0%	0.0%
CCCCCCCCCCCCCCCNc1nc(NCCCCCCC)nc(NCCN2CCCC2)n1 [Compound N7N15D3]	3.8%	5.2%
CCCCCCCCCCCCSc1nc(NCCN(C)C)nc(SCCCCCCCCCC)n1 [Compound S10S12D1]	0.0%	6.6%
CCCCCCCCCCCCCCCCNc1nc(NCCCCCCCCC)nc(NCCN(C)C)n1 [Compound N9N16D1]	1.5%	2.1%
CCCCCCCCCCCCCCCCCCNc1nc(NCCCCCCCC)nc(NCC2CCN(C)CC2)n1 [Compound N8N18D10]	5.0%	1.4%
CCCCCCCCCNc1nc(NCCCCCCCCC)nc(NCCCN2CCOCC2)n1 [Compound N9N9D8]	0.6%	0.0%
CCCCCCCCCCCCCCCCSc1nc(NCCN2CCCC2)nc(SCCCCCCCCCCCCCCC)n1 [Compound S15S16D3]	0.2%	0.1%
CCCCCCCCCCCCCCCCSc1nc(NCCCN(C)C)nc(SCCCCCCCCCCCCCCC)n1 [Compound S15S16D6]	0.4%	0.2%
